In PubChem BioAssay (NCI):
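48-hour exposure; five concentrations; linearly interpolated endpoints. Abbreviation: GI50, concentration required for 50% inhibition of growth. At the TGI there is no net growth.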

Legend:
Test in all cases: DTP human tumour cell line panel, 48 h
LOX IMVI melanoma = tested on: LOX IMVI melanoma
SN12C renal = tested on: SN12C renal
HT29 colon = tested on: HT29 colon
RXF 393 renal = tested on: RXF 393 renal
NCI-H226 lung = tested on: NCI-H226 lung
HCT-116 colon = tested on: HCT-116 colon
SR leukemia = tested on: SR leukemia
SF-539 CNS = tested on: SF-539 CNS
DU-145 prostate = tested on: DU-145 prostate
HS 578T breast = tested on: HS 578T breast

Row | Structure (SMILES) | TGI (LOX IMVI melanoma) | TGI (SN12C renal) | TGI (HT29 colon) | TGI (RXF 393 renal) | TGI (NCI-H226 lung) | TGI (HCT-116 colon) | TGI (SR leukemia) | TGI (SF-539 CNS) | TGI (DU-145 prostate) | TGI (HS 578T breast) | GI50 (LOX IMVI melanoma) | GI50 (SN12C renal) | GI50 (HT29 colon) | GI50 (RXF 393 renal) | GI50 (NCI-H226 lung) | GI50 (HCT-116 colon) | GI50 (SR leukemia) | GI50 (SF-539 CNS) | GI50 (DU-145 prostate) | GI50 (HS 578T breast)
1 | COc1ccccc1/C=C1\CCC(CN(C)C)C1=O (stereo not given) | 4.67 µM | 13.3 µM | 16.1 µM | 9.13 µM | 25 µM | 18.1 µM | 13 µM | 27.2 µM | 47.1 µM | > 45.8 µM | – | – | – | – | – | – | – | – | – | –
2 | CN(C)c1cc2c(cc1Sc1nc3c(N)nccc3n1CCNCC(C)(C)C)OCO2 | 4.41 µM | 25 µM | 11.1 µM | 15.3 µM | 19.7 µM | 13.9 µM | 12.2 µM | 16.3 µM | 18.5 µM | 23.7 µM | 0.417 µM | 0.507 µM | 0.285 µM | 0.665 µM | 1.69 µM | 0.381 µM | 0.25 µM | 1.45 µM | 0.732 µM | 2.04 µM
3 | O=C(O[C@H]1CN[C@H](C#Cc2cc3ncnc(Nc4ccc(Cc5ccccc5)cc4)c3s2)C1)N1CCOCC1 | 8.03 µM | > 25 µM | 10.7 µM | 7.11 µM | 15.7 µM | 8.16 µM | > 25 µM | 11.7 µM | 11 µM | > 21.7 µM | 4 µM | 4.08 µM | 4.71 µM | 1.35 µM | 5.01 µM | 4.03 µM | 11.2 µM | 4.42 µM | 4 µM | 3.06 µM
4 | O=C(c1ccc(F)c(F)c1Nc1ccc(I)cc1F)N1CC(O)([C@H]2CCCCN2)C1 | 5.49 µM | 19.7 µM | 10.9 µM | 8.76 µM | 22.8 µM | 11.7 µM | 17.8 µM | 22.8 µM | 22.3 µM | 33.7 µM | 1.05 µM | 3.96 µM | 0.0894 µM | 2.08 µM | 4.8 µM | 0.649 µM | 3.94 µM | 10.2 µM | 9.76 µM | 9.74 µM
5 | NC(=O)c1cccc(N)c1 | > 100 µM | > 100 µM | > 100 µM | > 100 µM | > 100 µM | > 100 µM | > 100 µM | > 100 µM | > 100 µM | > 100 µM | > 100 µM | > 100 µM | > 100 µM | > 100 µM | > 100 µM | > 100 µM | > 100 µM | > 100 µM | > 100 µM | > 100 µM
6 | NC(Cc1cc(Br)c(O)c(Br)c1)C(=O)O (stereo not given) | > 100 µM | > 100 µM | > 100 µM | > 100 µM | > 100 µM | > 100 µM | > 100 µM | > 100 µM | > 100 µM | > 100 µM | – | – | – | – | – | – | – | – | – | –
7 | O=Cc1ncc(-c2ccc(C(F)(F)F)cc2)c(NC2CCCCCC2)n1 | > 10 µM | > 10 µM | > 10 µM | > 10 µM | > 10 µM | > 10 µM | > 10 µM | > 10 µM | > 10 µM | > 10 µM | > 10 µM | > 10 µM | > 10 µM | > 10 µM | > 10 µM | > 10 µM | 5.7 µM | > 10 µM | > 10 µM | > 10 µM
8 | CC(/C=C/C=C/C=C/C=C/C=C/C(O)=C1/C(=O)C(CCC(=O)O)N(C)C1=O)=C\C(C)C(OC1CC(O)C(O)C(C)O1)C(C)C (stereo not given) | 11.5 µM | 13.6 µM | 14 µM | 11.2 µM | 11.8 µM | 7.15 µM | 40.2 µM | 6.3 µM | 12.4 µM | 32.3 µM | – | – | – | – | – | – | – | – | – | –
9 | COC(=O)C1=C(C(=O)Nc2cccnc2)C2OC1(C(Cc1ccccc1)Oc1ccccc1)C1OC21 (stereo not given) | 3.68 µM | 14.2 µM | 6.97 µM | 3.22 µM | 4.12 µM | 4.23 µM | 5.13 µM | 19.8 µM | 3.27 µM | 49.9 µM | 1.83 µM | 3.67 µM | 2.73 µM | 1.71 µM | 1.92 µM | 2.01 µM | 0.918 µM | 7.04 µM | 1.77 µM | 18.6 µM
10 | C[C@H]1O[C@@H](O[C@H]2[C@@H](O)C[C@H](O[C@H]3[C@@H](O)C[C@H](O[C@H]4CC[C@]5(C)C6C[C@@H](O)[C@]7(C)[C@@H](C8=CC(=O)OC8)CC[C@]7(O)C6CC[C@@H]5C4)O[C@@H]3C)O[C@@H]2C)C[C@H](O)[C@@H]1O (stereo not given in full) | 0.141 µM | 0.457 µM | 0.293 µM | 0.198 µM | 0.191 µM | 0.0972 µM | 0.307 µM | 0.139 µM | 0.0968 µM | 4.3 µM | 0.06 µM | 0.0266 µM | 0.0893 µM | 0.0634 µM | 0.102 µM | 0.0207 µM | 0.0552 µM | 0.0648 µM | 0.0329 µM | 0.0311 µM
11 | COc1ccc(S(=O)(=O)Nc2cc(/C=C\c3cc(OC)c(OC)c(OC)c3)cc(OC)c2OC)cc1OC | > 100 µM | > 100 µM | > 100 µM | 4.55 µM | > 100 µM | > 100 µM | > 100 µM | 28.6 µM | > 100 µM | > 100 µM | 0.472 µM | 1.18 µM | 0.485 µM | 0.683 µM | 1.87 µM | 0.469 µM | 0.704 µM | 0.518 µM | 0.841 µM | 3.42 µM
12 | Clc1cccc(Cn2cc(Cc3cn(Cc4cccc(Cl)c4)c4ccccc34)c3ccccc32)c1 | > 100 µM | > 100 µM | > 100 µM | > 100 µM | 59 µM | > 100 µM | > 100 µM | > 100 µM | > 100 µM | > 100 µM | 33.3 µM | > 100 µM | > 100 µM | > 100 µM | 10.1 µM | > 100 µM | > 100 µM | > 100 µM | > 100 µM | > 100 µM
13 | O=C(/C=C/c1ccccc1O)c1ccccc1 | 5.11 µM | 28.7 µM | 15.4 µM | 23.4 µM | 26.1 µM | 2.99 µM | 5.8 µM | 34.1 µM | 18.7 µM | 30.4 µM | 2.09 µM | 12.9 µM | 3.55 µM | 10.3 µM | 12.8 µM | 1.58 µM | 1.83 µM | 15.4 µM | 5.86 µM | 5.67 µM
